Experimental data as given in patent US20060173015A1, “Cyclohexyldiamines as selective alpha 1a/1d adrenoreceptor antagonists for the treatment of benign prostatic hypertrophy and lower urinary tract symptoms” (priority 2004, published 2006).

How the values were obtained:
[1] = molecular target: T1, α1b-AR (Homo sapiens, UniProt P35368); assay: α1-Adrenergic receptor radio-ligand (125I-HEAT) binding assay, α1b subtype; conditions: for Ki: Receptor Binding, Ki α1b-AR, COS-7 cell membranes, 125I-HEAT
T1 sequence (P35368 1-520): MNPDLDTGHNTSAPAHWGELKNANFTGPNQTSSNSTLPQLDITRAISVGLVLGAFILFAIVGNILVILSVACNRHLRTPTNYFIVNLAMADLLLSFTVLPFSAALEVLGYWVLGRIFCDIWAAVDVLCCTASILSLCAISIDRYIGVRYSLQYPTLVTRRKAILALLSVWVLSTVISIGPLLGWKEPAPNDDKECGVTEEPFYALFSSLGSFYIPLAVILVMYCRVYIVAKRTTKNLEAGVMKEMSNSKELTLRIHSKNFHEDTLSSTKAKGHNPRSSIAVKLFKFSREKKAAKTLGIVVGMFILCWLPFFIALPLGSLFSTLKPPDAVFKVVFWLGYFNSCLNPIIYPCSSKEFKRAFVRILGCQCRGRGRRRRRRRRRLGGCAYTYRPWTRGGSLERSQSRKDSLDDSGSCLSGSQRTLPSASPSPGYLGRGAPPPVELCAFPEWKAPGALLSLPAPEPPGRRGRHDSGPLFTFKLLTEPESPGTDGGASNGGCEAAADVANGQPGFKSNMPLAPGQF

[2] = molecular target: T2, α1d-AR (Homo sapiens, UniProt P25100); assay: α1-Adrenergic receptor radio-ligand (125I-HEAT) binding assay, α1d subtype; conditions: for Ki: COS-7 cell membranes, 125I-HEAT, read-out: Receptor Binding, Ki α1d-AR
T2 construct: expressed in transfected cells; host or cells: COS-7
T2 sequence (P25100 1-572): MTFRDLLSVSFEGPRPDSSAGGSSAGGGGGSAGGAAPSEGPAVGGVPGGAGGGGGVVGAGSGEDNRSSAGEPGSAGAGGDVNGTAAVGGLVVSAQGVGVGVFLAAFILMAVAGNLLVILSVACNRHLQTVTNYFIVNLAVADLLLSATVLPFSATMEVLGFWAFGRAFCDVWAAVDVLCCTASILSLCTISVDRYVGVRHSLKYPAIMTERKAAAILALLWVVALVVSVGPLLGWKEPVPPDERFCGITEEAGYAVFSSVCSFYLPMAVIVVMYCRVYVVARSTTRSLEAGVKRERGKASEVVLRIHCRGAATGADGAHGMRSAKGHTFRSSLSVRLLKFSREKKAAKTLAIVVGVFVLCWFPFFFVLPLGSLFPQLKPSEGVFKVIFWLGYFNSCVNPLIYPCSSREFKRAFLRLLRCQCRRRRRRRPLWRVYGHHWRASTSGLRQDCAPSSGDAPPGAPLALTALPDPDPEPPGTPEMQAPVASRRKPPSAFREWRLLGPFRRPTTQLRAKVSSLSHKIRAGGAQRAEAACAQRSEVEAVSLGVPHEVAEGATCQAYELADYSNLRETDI
Protocol: (§1) α1-Adrenergic Receptor Binding Assay: Preparation of COS Cell Membranes
(§2) Membranes were prepared from COS-7 cells that had been transfected with one of the three α1-AR subtypes by the following method. COS cells from ten 100 mm tissue culture plates were scraped into 5 mL TE (50 mM Tris-HCl, 5 mM EDTA, pH 7.4). The cell suspension was disrupted with a Brinkman Polytron, setting 8, for 10 sec. The disrupted cells were centrifuged at 1000×g for 10 min at 4° C. Supernatants were centrifuged at 34,500×g for 20 min at 4° C. The membrane pellets were suspended in 2 mL TNE (50 mM Tris-HCl, 5 mM EDTA, 150 mM NaCl, pH7.4). An aliquot of the membrane suspension was stored at −70° C. until use. The protein concentration was determined using the BioRad DC protein assay kit following membrane solubilization with Triton X-100.
(§3) Radio-Ligand Binding Assay
Triplicate determinations of radio-ligand binding in the presence of increasing: concentrations of testing compound were made. The reagents were added to 96-well polypropylene plate wells using the Biomek 1000 robot (Beckman Instruments). […] The plate was incubated at rt for 1 hr. The contents of the wells were filtered through a GF/C membrane Unifilter plate (Packard Instruments) using the Packard Filtermate cell harvester. The filter plates were dried in a vacuum oven for 30 min at 40° C. 25 μL Microscint 20 liquid scintillation fluid (Packard Instuments) was added to each well. The radioactive content was analyzed in the TopCount microplate scintillation counter (Packard Instruments).

[3] = molecular target: T3, α1a-AR (Homo sapiens, UniProt P35348); assay: α1-Adrenergic receptor radio-ligand (125I-HEAT) binding assay, α1a subtype; conditions: for Ki: COS-7 cell membranes, 125I-HEAT
T3 construct: expressed in transfected cells; host or cells: COS-7
T3 sequence (P35348 1-466): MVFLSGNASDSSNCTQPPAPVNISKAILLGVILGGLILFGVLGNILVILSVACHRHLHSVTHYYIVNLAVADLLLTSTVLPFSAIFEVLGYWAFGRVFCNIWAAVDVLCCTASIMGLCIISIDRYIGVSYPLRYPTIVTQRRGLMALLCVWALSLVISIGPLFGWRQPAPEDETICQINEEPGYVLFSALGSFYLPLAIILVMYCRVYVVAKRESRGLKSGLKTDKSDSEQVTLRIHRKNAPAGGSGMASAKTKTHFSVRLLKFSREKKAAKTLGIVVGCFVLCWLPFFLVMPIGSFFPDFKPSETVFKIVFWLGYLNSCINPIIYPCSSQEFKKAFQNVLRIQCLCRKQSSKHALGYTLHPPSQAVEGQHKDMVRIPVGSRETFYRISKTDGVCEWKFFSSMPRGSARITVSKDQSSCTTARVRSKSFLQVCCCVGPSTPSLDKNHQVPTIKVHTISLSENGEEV
Protocol: as §1, §2, §3
Triplicate determinations of radio-ligand binding in the presence of increasing: concentrations of testing compound were made. The reagents were added to 96-well polypropylene plate wells using the Biomek 1000 robot (Beckman Instruments). Each assay well contained 140 μl TNE, 25 μL ^125I-HEAT (specific activity 2200 Ci/mmol, Dupont-NEN, 50 pM final), 10 μL testing compound dissolved in DMSO (1 pM to 10 μM in half-log increments, final), and 25 μL appropriate α1-AR membrane subtype suspension in TNE (0.5 ng/μL for the α1a and α1b subtypes and 13 ng/μL for the α1d subtype). The plate was incubated at rt for 1 hr. The contents of the wells were filtered through a GF/C membrane Unifilter plate (Packard Instruments) using the Packard Filtermate cell harvester. The filter plates were dried in a vacuum oven for 30 min at 40° C. 25 μL Microscint 20 liquid scintillation fluid (Packard Instuments) was added to each well. The radioactive content was analyzed in the TopCount microplate scintillation counter (Packard Instruments).

SMILES | Kd ([1]; read-out: Kd used in the Ki calculation, α1b-AR, radio-ligand) [nM] | Kd ([2]; radio-ligand, read-out: Kd used in the Ki calculation, α1d-AR) [nM] | Kd ([3]; radio-ligand, read-out: Kd used in the Ki calculation, α1a-AR) [nM] | Ki [1] [nM] | Ki [2] [nM] | Ki [3] [nM]
O=C1c2ccccc2CCC1CNCCc1ccc(O)c(I)c1 (stereo not shown) [125I-HEAT, reference compound] | 79 | 50 | 81.5 | – | – | –
CC(C)Oc1ccccc1N1CCN([C@H]2CC[C@@H](NS(=O)(=O)c3ccc(Cl)cc3Cl)CC2)CC1 [Cpd 1, 2,4-Dichloro-N-cis-{4-[4-(2-isopropoxy-phenyl)-piperazine-1-yl]-cyclohexyl}-benzenesulfonamide] | – | – | – | 177 | 0.64 | 4.5
COc1ccc(Cl)cc1S(=O)(=O)N[C@H]1CC[C@@H](N2CCN(c3ccccc3OC(C)C)CC2)CC1 [Cpd 3, 5-Chloro-N-cis-{4-[4-(2-isopropoxy-phenyl)-piperazin-1-yl]-cyclohexyl}-2-methoxy-benzenesulfonamide] | – | – | – | 47.6 | – | 2.5
COc1ccc(C)cc1S(=O)(=O)N[C@H]1CC[C@@H](N2CCN(c3ccccc3OC(C)C)CC2)CC1 [Cpd 4, N-cis-{4-[4-(2-Isopropoxy-phenyl)-piperazin-1-yl]-cyclohexyl}-2-methoxy-5-methyl-benzenesulfonamide] | – | – | – | 141 | 3.8 | 4.6
CC(C)Oc1ccccc1N1CCN([C@H]2CC[C@@H](NS(=O)(=O)c3ccccc3S(C)(=O)=O)CC2)CC1 [Cpd 5, N-cis-{4-[4-(2-Isopropoxy-phenyl)-piperazin-1-yl]-cyclohexyl}-2-methanesulfonyl-benzenesulfonamide] | – | – | – | 118 | 2.8 | 12.5
CC(C)Oc1ccccc1N1CCN([C@H]2CC[C@@H](NS(=O)(=O)c3ccc(C(F)(F)F)cc3)CC2)CC1 [Cpd 9, N-cis-{4-[4-(2-Isopropoxy-phenyl)-piperazin-1-yl]-cyclohexyl}-4-trifluoromethyl-benzenesulfonamide] | – | – | – | 124 | 18 | 25
CC(C)Oc1ccccc1N1CCN([C@H]2CC[C@@H](NS(=O)(=O)c3ccc(F)cc3)CC2)CC1 [Cpd 10, 4-Fluoro-N-cis-{4-[4-(2-isopropoxy-phenyl)-piperazin-1-yl]-cyclohexyl}-benzenesulfonamide] | – | – | – | 150 | 4.8 | 5.6
Cc1c(Cl)cccc1S(=O)(=O)N[C@H]1CC[C@@H](N2CCN(c3ccccc3OC(C)C)CC2)CC1 [Cpd 11, 3-Chloro-N-cis-{4-[4-(2-isopropoxy-phenyl)-piperazin-1-yl]-cyclohexyl}-2-methyl-benzenesulfonamide] | – | – | – | 129 | 1.1 | 18
CC(C)Oc1ccccc1N1CCN([C@H]2CC[C@@H](NS(=O)(=O)c3cc(Cl)ccc3F)CC2)CC1 [Cpd 12, 5-Chloro-2-fluoro-N-cis-{4-[4-(2-isopropoxy-phenyl)-piperazin-1-yl]-cyclohexyl}-benzenesulfonamide] | – | – | – | 66 | 0.4 | 3.8

Next, values leading:

Kd ([1]; read-out: Kd used in the Ki calculation, α1b-AR, radio-ligand) [nM] | Kd ([2]; radio-ligand, read-out: Kd used in the Ki calculation, α1d-AR) [nM] | Kd ([3]; radio-ligand, read-out: Kd used in the Ki calculation, α1a-AR) [nM] | Ki [1] [nM] | Ki [2] [nM] | Ki [3] [nM] | SMILES
– | – | – | 190 | 3.4 | 23 | CC(C)Oc1ccccc1N1CCN([C@H]2CC[C@@H](NS(=O)(=O)c3ccccc3C(F)(F)F)CC2)CC1 [Cpd 13, N-cis-{4-[4-(2-Isopropoxy-phenyl)-piperazin-1-yl]-cyclohexyl}-2-trifluoromethyl-benzenesulfonamide]
– | – | – | 246 | 4.3 | 11.6 | CC(C)Oc1ccccc1N1CCN([C@H]2CC[C@@H](NS(=O)(=O)c3ccc(F)c(Cl)c3)CC2)CC1 [Cpd 14, 3-Chloro-4-fluoro-N-cis-{4-[4-(2-isopropoxy-phenyl)-piperazin-1-yl]-cyclohexyl}-benzenesulfonamide]
– | – | – | 162 | 5 | 6 | COc1ccc(F)cc1S(=O)(=O)N[C@H]1CC[C@@H](N2CCN(c3ccccc3OC(C)C)CC2)CC1 [Cpd 15, 5-Fluoro-N-cis-{4-[4-(2-isopropoxy-phenyl)-piperazin-1-yl]-cyclohexyl}-2-methoxy-benzenesulfonamide]
– | – | – | 174 | 2.1 | 17.4 | CC(C)Oc1ccccc1N1CCN([C@H]2CC[C@@H](NS(=O)(=O)c3ccc(OC(F)(F)F)cc3)CC2)CC1 [Cpd 17, N-cis-{4-[4-(2-Isopropoxy-phenyl)-piperazin-1-yl]-cyclohexyl}-4-trifluoromethoxy-benzenesulfonamide]
– | – | – | 167 | 11.1 | 10.5 | Cc1ccc(S(=O)(=O)N[C@H]2CC[C@@H](N3CCN(c4ccccc4OC(C)C)CC3)CC2)cc1Cl [Cpd 18, 3-Chloro-N-cis-{4-[4-(2-isopropoxy-phenyl)-piperazin-1-yl]-cyclohexyl}-4-methyl-benzenesulfonamide]
– | – | – | 85.3 | 2.2 | 4.3 | COc1ccc([N+](=O)[O-])cc1S(=O)(=O)N[C@H]1CC[C@@H](N2CCN(c3ccccc3OC(C)C)CC2)CC1 [Cpd 19, N-cis-{4-[4-(2-Isopropoxy-phenyl)-piperazin-1-yl]-cyclohexyl}-2-methoxy-5-nitro-benzenesulfonamide]
– | – | – | 473 | 14 | 35.9 | COc1ccc(C(F)(F)F)cc1S(=O)(=O)N[C@H]1CC[C@@H](N2CCN(c3ccccc3OC(C)C)CC2)CC1 [Cpd 20, N-cis-{4-[4-(2-Isopropoxy-phenyl)-piperazin-1-yl]-cyclohexyl}-2-methoxy-5-trifluoromethyl-benzenesulfonamide]
– | – | – | 250 | – | 3.8 | COc1ccc(Cl)cc1S(=O)(=O)N[C@H]1CC[C@H](N2CCN(c3ccccc3OC(C)C)CC2)CC1 [Cpd 31, 5-Chloro-N-trans-{4-[4-(2-isopropoxy-phenyl)-piperazin-1-yl]-cyclohexyl}-2-methoxy-benzenesulfonamide]
